Reference: patent US11339130B1 (Blade Therapeutics, Inc., priority 2016, dated 2022)
Read-outs that look alike come from different tables or passages of the source.

Legend:
[1] = target: T1, Human Calpain 1/NS1 (Homo sapiens, UniProt P07384); assay: Calpain inhibition continuous fluorescence (FRET) assay, Human Calpain 1/NS1; format: biochemical; conditions: read-out: Human Calpain 1/NS1 IC50
T1 sequence (P07384 1-714): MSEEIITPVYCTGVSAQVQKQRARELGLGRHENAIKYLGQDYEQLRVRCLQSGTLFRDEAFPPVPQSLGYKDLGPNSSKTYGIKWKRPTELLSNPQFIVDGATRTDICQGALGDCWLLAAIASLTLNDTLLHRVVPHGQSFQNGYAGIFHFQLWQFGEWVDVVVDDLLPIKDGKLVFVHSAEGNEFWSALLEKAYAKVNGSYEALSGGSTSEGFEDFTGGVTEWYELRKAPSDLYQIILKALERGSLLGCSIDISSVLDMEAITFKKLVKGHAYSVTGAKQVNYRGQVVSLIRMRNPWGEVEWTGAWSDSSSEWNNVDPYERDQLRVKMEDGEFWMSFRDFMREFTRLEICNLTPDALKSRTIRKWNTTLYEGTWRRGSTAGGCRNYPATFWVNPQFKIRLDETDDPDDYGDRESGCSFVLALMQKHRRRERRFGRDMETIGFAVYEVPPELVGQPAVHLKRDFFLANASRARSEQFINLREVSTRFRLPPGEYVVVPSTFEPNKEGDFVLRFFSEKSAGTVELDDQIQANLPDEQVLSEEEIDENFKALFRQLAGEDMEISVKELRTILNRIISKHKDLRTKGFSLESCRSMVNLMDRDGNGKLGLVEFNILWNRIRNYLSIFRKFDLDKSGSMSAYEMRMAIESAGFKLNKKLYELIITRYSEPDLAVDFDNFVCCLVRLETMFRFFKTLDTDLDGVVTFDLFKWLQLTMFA
T1 sequence (P04632 1-268 partner): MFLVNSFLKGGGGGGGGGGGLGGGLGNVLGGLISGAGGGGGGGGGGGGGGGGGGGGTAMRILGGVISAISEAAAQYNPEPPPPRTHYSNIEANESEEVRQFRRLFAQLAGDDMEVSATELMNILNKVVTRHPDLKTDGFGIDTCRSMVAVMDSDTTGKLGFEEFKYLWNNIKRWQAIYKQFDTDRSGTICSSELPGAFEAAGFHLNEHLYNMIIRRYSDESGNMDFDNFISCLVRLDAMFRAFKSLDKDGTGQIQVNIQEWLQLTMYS
Summary of the method: (§1)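 Inhibitors were preincubated with calpain in 50 mM Tris pH 7.5, 100 mM NaCl, 1 mM DTT at 25C. Reactions were started with 5-FAM/QXL 520 FRET peptide substrate plus CaCl2 and read at 490/520 nm for 10 min. IC50s came from 4-parameter fits of slope rates (1-5 min).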

[2] = tested on: Calpain activity in SH-SY5Y cells (SBDP-150); assay: SH-SY5Y Spectrin western blot assay (SBDP-150 breakdown product, A23187-induced); format: cell-based; conditions: SH-SY5Y cells, read-out: SH-SY5Y Spectrin IC50
[3] = tested on: Calpain activity in SH-SY5Y cells; assay: SH-SY5Y + AMC fluorescence assay (Suc-LLVY-AMC substrate); format: cell-based; conditions: read-out: SH-SY5Y + AMC IC50
[4] = target: T2, Human Calpain 9/NS1 (Homo sapiens, UniProt O14815); assay: Calpain inhibition continuous fluorescence (FRET) assay, Human Calpain 9/NS1; format: biochemical; conditions: read-out: Human Calpain 9/NS1 IC50
T2 sequence (O14815 1-690): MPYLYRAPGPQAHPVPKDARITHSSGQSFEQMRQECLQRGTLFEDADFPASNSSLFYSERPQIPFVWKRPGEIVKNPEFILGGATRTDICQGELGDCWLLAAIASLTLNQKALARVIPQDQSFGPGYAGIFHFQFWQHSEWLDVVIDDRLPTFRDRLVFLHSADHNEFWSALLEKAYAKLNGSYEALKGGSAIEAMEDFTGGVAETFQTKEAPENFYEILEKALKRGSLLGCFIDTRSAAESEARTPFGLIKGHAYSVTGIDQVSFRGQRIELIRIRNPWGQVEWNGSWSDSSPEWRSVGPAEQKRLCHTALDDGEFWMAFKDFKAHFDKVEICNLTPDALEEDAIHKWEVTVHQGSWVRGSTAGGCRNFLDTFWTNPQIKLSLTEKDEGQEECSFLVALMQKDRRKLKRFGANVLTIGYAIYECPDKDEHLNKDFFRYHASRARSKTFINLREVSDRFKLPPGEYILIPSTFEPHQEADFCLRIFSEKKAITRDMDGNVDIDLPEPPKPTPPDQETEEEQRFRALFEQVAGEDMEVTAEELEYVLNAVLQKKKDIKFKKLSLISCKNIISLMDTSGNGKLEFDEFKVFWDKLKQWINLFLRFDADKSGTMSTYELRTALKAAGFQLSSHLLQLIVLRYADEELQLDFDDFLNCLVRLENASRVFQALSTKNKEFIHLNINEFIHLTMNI
T2 sequence (P04632 1-268 partner): T1 sequence (P04632 1-268 partner)
Summary of the method: as §1

[5] = target: T3, Human Calpain 2/NS1 (Homo sapiens, UniProt P17655); assay: Calpain inhibition continuous fluorescence (FRET) assay, Human Calpain 2/NS1; format: biochemical; conditions: read-out: Human Calpain 2/NS1 IC50
T3 sequence (P17655 1-700): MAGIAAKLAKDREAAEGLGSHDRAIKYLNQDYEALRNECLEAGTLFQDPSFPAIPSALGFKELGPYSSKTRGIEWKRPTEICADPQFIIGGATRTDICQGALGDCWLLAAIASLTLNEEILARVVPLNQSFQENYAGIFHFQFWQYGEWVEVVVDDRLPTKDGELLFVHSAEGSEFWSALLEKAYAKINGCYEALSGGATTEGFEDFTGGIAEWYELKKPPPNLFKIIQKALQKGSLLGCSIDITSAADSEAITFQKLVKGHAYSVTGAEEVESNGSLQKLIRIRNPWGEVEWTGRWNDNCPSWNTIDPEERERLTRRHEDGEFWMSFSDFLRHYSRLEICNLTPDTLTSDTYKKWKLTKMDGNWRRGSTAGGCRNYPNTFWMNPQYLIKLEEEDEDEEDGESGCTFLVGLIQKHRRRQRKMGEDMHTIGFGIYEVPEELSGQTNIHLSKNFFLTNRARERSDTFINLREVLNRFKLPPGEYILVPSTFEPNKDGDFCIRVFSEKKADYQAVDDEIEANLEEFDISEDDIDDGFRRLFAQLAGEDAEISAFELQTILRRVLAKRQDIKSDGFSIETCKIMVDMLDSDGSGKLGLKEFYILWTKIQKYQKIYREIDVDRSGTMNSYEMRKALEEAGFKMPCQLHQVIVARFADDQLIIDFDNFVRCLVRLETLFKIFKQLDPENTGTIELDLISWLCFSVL
T3 sequence (P04632 1-268 partner): T1 sequence (P04632 1-268 partner)
Summary of the method: as §1

[6] = Homo sapiens, A23187-induced SBDP-150, western blot
[7] = Homo sapiens, Column D, A23187-induced SBDP-150

| Molecule | IC50 [1] [µM] | IC50 [2, 6] [µM] | IC50 [3] [µM] | IC50 [4] [µM] | IC50 [5] [µM] | IC50 ([1]; Column A) [µM] | IC50 [2, 7] [µM] | IC50 ([3]; Column E) [µM] | IC50 ([4]; Column C) [µM] | IC50 ([5]; Column B) [µM] | IC50 ([2]; A23187-induced SBDP-150, western blot) [µM] |
| --- | --- | --- | --- | --- | --- | --- | --- | --- | --- | --- | --- |
| NC(=O)C(=O)[C@H](Cc1ccccc1)NC(=O)c1conc1-c1ccc(F)cc1 [Compound 289, (S)—N-(4-amino-3,4-dioxo-1-phenylbutan-2-yl)-3-(4-fluorophenyl)isoxazole-4-carboxamide] | – | – | – | – | – | < 3 | 10 to 25 | > 25 | < 3 | < 3 | – |
| Cc1cc(C(=O)N[C@@H](Cc2ccccc2)C(=O)C(N)=O)n(-c2ccc(CNC(=O)Cc3ccccc3)cc2)n1 [Compound 159, (S)—N-(4-amino-3,4-dioxo-1-phenylbutan-2-yl)-3-methyl-1-(4-((2-phenylacetamido)methyl)phenyl)-1H-pyrazole-5-carboxamide] | – | – | – | – | – | < 3 | 10 to 25 | > 25 | < 3 | < 3 | – |
| Cc1cc(C(=O)N[C@@H](Cc2ccccc2)C(=O)C(N)=O)n(-c2ccc(OC(F)(F)F)cc2)n1 [Compound 19, (S)—N-(4-amino-3,4-dioxo-1-phenylbutan-2-yl)-3-methyl-1-(4-(trifluoromethoxy)phenyl)-1H-pyrazole-5-carboxamide] | – | – | – | – | – | < 3 | 10 to 25 | > 25 | < 3 | < 3 | – |
| Cc1ccccc1-c1nn(C(F)F)cc1C(=O)NC(Cc1ccccc1)C(=O)C(N)=O (stereo not shown) [Compound 382, N-(4-amino-3,4-dioxo-1-phenylbutan-2-yl)-1-(difluoromethyl)-3-(o-tolyl)-1H-pyrazole-4-carboxamide] | < 3 | 10 to 25 | < 10 | < 3 | < 3 | – | – | – | – | – | – |
| CCCCC(NC(=O)c1nsnc1-c1ccccc1)C(=O)C(N)=O (stereo not shown) [Compound 467, N-(1-amino-1,2-dioxoheptan-3-yl)-4-phenyl-1,2,5-thiadiazole-3-carboxamide] | < 3 | < 10 | > 25 | < 3 | < 3 | – | – | – | – | – | – |
| Cc1cncc(-c2oncc2C(=O)NC(Cc2ccccc2)C(=O)C(N)=O)c1 (stereo not shown) [Compound 600, N-(4-amino-3,4-dioxo-1-phenylbutan-2-yl)-5-(5-methylpyridin-3-yl)isoxazole-4-carboxamide] | < 3 | 10 to 25 | > 25 | < 3 | < 3 | – | – | – | – | – | – |
| CCc1cccc(-c2nn(C)cc2C(=O)N[C@@H](Cc2ccccc2)C(=O)C(N)=O)c1 [Compound 182, (S)—N-(4-amino-3,4-dioxo-1-phenylbutan-2-yl)-3-(3-ethylphenyl)-1-methyl-1H-pyrazole-4-carboxamide] | – | – | – | – | – | < 3 | 10 to 25 | < 10 | < 3 | < 3 | – |
| COCCOCCOc1ccc(-n2nc(C)cc2C(=O)NC(Cc2ccccc2)C(=O)C(N)=O)cc1 (stereo not shown) [Compound 443, N-(4-amino-3,4-dioxo-1-phenylbutan-2-yl)-1-(4-(2-(2-methoxyethoxy)ethoxy)phenyl)-3-methyl-1H-pyrazole-5-carboxamide] | < 3 | < 10 | 10 to 25 | < 3 | < 3 | – | – | – | – | – | – |

Other lines, results leading:

| IC50 [1] [µM] | IC50 [2, 6] [µM] | IC50 [3] [µM] | IC50 [4] [µM] | IC50 [5] [µM] | IC50 ([1]; Column A) [µM] | IC50 [2, 7] [µM] | IC50 ([3]; Column E) [µM] | IC50 ([4]; Column C) [µM] | IC50 ([5]; Column B) [µM] | IC50 ([2]; A23187-induced SBDP-150, western blot) [µM] | Molecule |
| --- | --- | --- | --- | --- | --- | --- | --- | --- | --- | --- | --- |
| < 3 | > 25 | > 25 | < 3 | < 3 | – | – | – | – | – | – | Cn1cc(C(=O)N[C@@H](Cc2ccccc2)C(=O)C(N)=O)c(-c2cnccn2)n1 [Compound 313, (S)—N-(4-amino-3,4-dioxo-1-phenylbutan-2-yl)-1-methyl-3-(pyrazin-2-yl)-1H-pyrazole-4-carboxamide] |
| < 3 | < 10 | < 10 | < 3 | < 3 | – | – | – | – | – | – | NC(=O)C(=O)C(Cc1ccccc1)NC(=O)c1cn(C(F)F)nc1-c1cccc(F)c1 (stereo not shown) [Compound 381, N-(4-amino-3,4-dioxo-1-phenylbutan-2-yl)-1-(difluoromethyl)-3-(3-fluorophenyl)-1H-pyrazole-4-carboxamide] |
| < 3 | 10 to 25 | > 25 | < 3 | < 3 | – | – | – | – | – | – | Cc1cc(C(=O)NC(Cc2ccccc2)C(=O)C(N)=O)n(-c2ccc(CNC(=O)c3ccc(F)cc3)cc2)n1 (stereo not shown) [Compound 496, N-(4-amino-3,4-dioxo-1-phenylbutan-2-yl)-1-(4-((4-fluorobenzamido)methyl)phenyl)-3-methyl-1H-pyrazole-5-carboxamide] |
| < 3 | 10 to 25 | > 25 | < 3 | < 3 | – | – | – | – | – | – | Cn1cc(C(=O)NC(Cc2ccccc2)C(=O)C(N)=O)c(-c2cccc3cnccc23)n1 (stereo not shown) [Compound 607, N-(4-amino-3,4-dioxo-1-phenylbutan-2-yl)-3-(isoquinolin-5-yl)-1-methyl-1H-pyrazole-4-carboxamide] |
| < 3 | < 10 | > 25 | < 3 | < 3 | – | – | – | – | – | – | NC(=O)C(=O)C(Cc1ccccc1)NC(=O)c1cn(C(F)F)nc1-c1ccc2cccnc2c1 (stereo not shown) [Compound 575, N-(4-amino-3,4-dioxo-1-phenylbutan-2-yl)-1-(difluoromethyl)-3-(quinolin-7-yl)-1H-pyrazole-4-carboxamide] |
| < 3 | – | 10 to 25 | < 3 | < 3 | – | – | – | – | – | 10 to 25 | N-(4-amino-3,4-dioxo-1-phenylbutan-2-yl)-3-(5-fluoropyridin-3-yl)-1-methyl-1H-pyrazole-4-carboxamide [Compound 506] |
